Results as given in PMC10090470 (Parasitology, 2023).
Like-named read-outs stand apart in the source and are kept apart here.

Legend:
[1] = tested on: bloodstream trypomastigote forms of Trypanosoma cruzi (Y strain, DTU II); conditions: ref Simões-Silva et al. (2019), cited from earlier work; for EC50: read-out: Activity against bloodstream trypomastigotes EC50; for EC50 / EC90: Y strain; for EC90: read-out: Activity against bloodstream trypomastigotes EC90
L929 cells = tested on: L929 cells; set-up: method as in Simões-Silva et al. (2019); conditions: ± S.D., ref Simões-Silva et al. (2019), read-out: Toxicity against L929 cells LC50; cited from earlier work
[2] = tested on: intracellular forms of Trypanosoma cruzi (Tulahuen strain, DTU VI); conditions: read-out: Activity against intracellular forms of the parasite EC50, ± S.D., ref Simões-Silva et al. (2019); cited from earlier work
in vitro = assay type: cell-based; conditions: mouse
Description: L929 culture cells were seeded in 96-well plates with 4 × 10^3 cells per well and sustained in RPMI medium supplemented with 10% FBS. The compounds were added (0–400 μM, serially diluted 1:2) and the non-infected cultures incubated for 96 h at 37°C/5% CO2. Then, their viability was assessed by Alamar Blue reagent following the manufacturer's specifications. Controls were carried out with parasites kept under the same conditions in the absence of the compounds.

[3] = tested on: intracellular forms of Trypanosoma cruzi (Tulahuen strain, DTU VI); assay: In vitro activity against intracellular forms of T. cruzi (Tulahuen strain, β-galactosidase) in L929 cells; assay type: cell-based; conditions: for Selectivity index (IC50/EC50): SI = LC50 (L929) / EC50 (intracellular forms); for EC90 / EC50: Tulahuen strain in L929 cells, 96 h, 95% confidence interval in brackets; for EC90: read-out: Activity against intracellular forms of the parasite EC90; for EC50: read-out: Activity against intracellular forms of the parasite EC50
Description: L929 cells were infected with trypomastigotes obtained from the supernatant of infected cultures. After 2 h of interaction (10 parasites per host cell), the parasites which were not internalized were removed by replacing the RPMI medium. After 48 h of incubation, the compounds were added to the infected cultures (0–10 μM, serially diluted 1:2) and the cultures incubated for 96 h at 37°C/5% CO2. BZ and DMSO (solvent used for the compounds) were run in parallel as positive and negative controls, respectively. After the elapsed time, 50 μL per well of chlorophenol red-β-D-galactopyranoside was added and a reading was done in a spectrophotometer at 570 nm (Romanha et al., [2010]).

[4] = tested on: bloodstream trypomastigote forms of Trypanosoma cruzi (Y strain, DTU II); assay: In vitro activity against bloodstream trypomastigotes (Y strain); assay type: cell-based; conditions: 95% confidence interval in brackets
Description: Trypomastigote forms were incubated in 96-well microplates. Briefly, 100 μL of a BT suspension (in RPMI medium + 5% FBS) containing 10^7 parasites mL^−1 was added to the same volume of each compound diluted in RPMI + 5% FBS at twice of the desired final concentration (0–50 μM, serially diluted 1:2). After 2 and 24 h at 37°C, the number of live parasites was determined by light microscope quantification using a Neubauer chamber. Controls were carried out with parasites kept under the same conditions in the absence of the compounds. BZ was run in parallel.

[5] = Trypanosoma cruzi, TULAHUEN, L929, 96 h

O=C(Cn1ccnc1[N+](=O)[O-])NCc1ccccc1 [BZ, benznidazole]
activity against bloodstream trypomastigotes in words ([1]; after 2 h of drug exposure): completely inactive
EC50 ([1]; 2 h): > 50 µM
EC50 ([1]; 24 h, ± S.D.): 14.4 ± 3.4 µM
EC90 ([1]; 2 h): > 50 µM
EC90 ([1]; 24 h, ± S.D.): 22.8 ± 7.8 µM
CC50 (L929 cells): > 400 µM
EC50 [2]: 4.1 ± 1.3 µM

Cc1ccc(CC(=O)c2cccc(OCCCCn3ccnc3)c2)cc1Nc1nccc(-c2cccnc2)n1 [LS2/97]
CC50 at 96 h (in vitro): 19.3 µM
Selectivity index (IC50/EC50) [3]: 14.81
EC90 [3, 5]: > 10 µM
EC50 ([3]; Trypanosoma cruzi): 1.3 µM
EC50 ([4]; Trypanosoma cruzi, 2 h): 7.84 µM
EC90 ([4]; Trypanosoma cruzi, 2 h): 11.4 µM
EC50 ([4]; Trypanosoma cruzi, 24 h): 4.72 µM
EC90 ([4]; Trypanosoma cruzi, 24 h): 8.52 µM

Cc1ccc(CC(=O)c2ccc([N+](=O)[O-])c(OCCCCn3ccnc3)c2)cc1Nc1nccc(-c2cccnc2)n1 [LS2/130]
Selectivity index (IC50/EC50) [3]: 4.84
EC90 [3, 5]: 9.44 µM
EC50 ([3]; Trypanosoma cruzi): 1.05 µM
EC50 ([4]; Trypanosoma cruzi, 2 h): 5.69 µM
EC90 ([4]; Trypanosoma cruzi, 2 h): 7.31 µM
EC50 ([4]; Trypanosoma cruzi, 24 h): 3.4 µM
EC90 ([4]; Trypanosoma cruzi, 24 h): 4.8 µM

Cc1ccc(CC(=O)c2ccccc2OCCCCn2ccnc2)cc1Nc1nccc(-c2cccnc2)n1 [LS2/98]
CC50 at 96 h (in vitro): 12.2 µM
Selectivity index (IC50/EC50) [3]: 3.93
EC90 [3, 5]: > 10 µM
EC50 ([3]; Trypanosoma cruzi): 3.31 µM
EC50 ([4]; Trypanosoma cruzi, 2 h): > 50 µM
EC90 ([4]; Trypanosoma cruzi, 2 h): > 50 µM
EC50 ([4]; Trypanosoma cruzi, 24 h): 9.59 µM
EC90 ([4]; Trypanosoma cruzi, 24 h): 22 µM

Cc1ccc(CC(=O)c2ccc(Br)cc2OCCCCn2ccnc2)cc1Nc1nccc(-c2cccnc2)n1 [LS2/128]
CC50 at 96 h (in vitro): 17.9 µM
Selectivity index (IC50/EC50) [3]: 4.22
EC90 [3, 5]: > 10 µM
EC50 ([3]; Trypanosoma cruzi): 4.25 µM
EC50 ([4]; Trypanosoma cruzi, 2 h): 5.93 µM
EC90 ([4]; Trypanosoma cruzi, 2 h): 8.93 µM
EC50 ([4]; Trypanosoma cruzi, 24 h): 4.12 µM
EC90 ([4]; Trypanosoma cruzi, 24 h): 5.69 µM

COc1ccc(C(=O)Cc2ccc(C)c(Nc3nccc(-c4cccnc4)n3)c2)cc1OCCCCn1ccnc1 [LS2/116]
CC50 at 96 h (in vitro): 5.13 µM
Selectivity index (IC50/EC50) [3]: 3.49
EC90 [3, 5]: > 10 µM
EC50 ([3]; Trypanosoma cruzi): 1.47 µM
EC50 ([4]; Trypanosoma cruzi, 2 h): 12 µM
EC90 ([4]; Trypanosoma cruzi, 2 h): 28.1 µM
EC50 ([4]; Trypanosoma cruzi, 24 h): 3.89 µM
EC90 ([4]; Trypanosoma cruzi, 24 h): 7.09 µM

Cc1ccc(CC(=O)c2ccc(OCCCCn3ccnc3)c(Br)c2)cc1Nc1nccc(-c2cccnc2)n1 [LS2/89]
CC50 at 96 h (in vitro): 12.3 µM
Selectivity index (IC50/EC50) [3]: 64.74
EC90 [3, 5]: 1.6 µM
EC50 ([3]; Trypanosoma cruzi): 0.19 µM
EC90 [3]: 1.68 µM
EC90 ([4]; 24 h): 4.93 µM
EC50 ([4]; Trypanosoma cruzi, 2 h): 4.83 µM
EC90 ([4]; Trypanosoma cruzi, 2 h): 8.12 µM
EC50 ([4]; Trypanosoma cruzi, 24 h): 2.67 µM
EC90 ([4]; Trypanosoma cruzi, 24 h): 4.9 µM

COc1cc(C(=O)Cc2ccc(C)c(Nc3nccc(-c4cccnc4)n3)c2)ccc1OCCCCn1ccnc1 [LS2/122]
CC50 at 96 h (in vitro): 5.44 µM
Selectivity index (IC50/EC50) [3]: 1.22
EC90 [3, 5]: > 10 µM
EC50 ([3]; Trypanosoma cruzi): 4.47 µM
EC50 ([4]; Trypanosoma cruzi, 2 h): 11.1 µM
EC90 ([4]; Trypanosoma cruzi, 2 h): 22.1 µM
EC50 ([4]; Trypanosoma cruzi, 24 h): 3.27 µM
EC90 ([4]; Trypanosoma cruzi, 24 h): 5.34 µM
